Experimental data: patent publication US12568960B2, “Adjuvant combinations as foliar uptake accelerator for herbicidal compositions” (Bayer Aktiengesellschaft, priority 2019, dated 2026)

What was measured:
[1] = system: cuticula of apple leaves; assay: Membrane (cuticle) penetration test
Description: The properties of the adjuvant combinations according to the invention as penetration enhancers were measured in a membrane penetration test on the cuticula of apple leaves.
Determination of bioavailability of various herbicides, plant growth regulators (PGRs) and safeners by cuticle penetration test.
The leaf cuticles were isolated enzymatically as described in the literature. The stomata-free cuticles were first dried under air and introduced into stainless steel diffusion cells. After the application of the test liquids to the original top side of the leaf and evaporation of liquid, the diffusion cells were transferred into thermostat blocks and loaded with water. At regular intervals, aliquot samples were taken, and the amount of active ingredient diffused was determined by means of HPLC. […] Detection was effected with a DAD detector. The results given in each case are the geometric penetration averages at the average measurement times. According to the variance, 10 repeat measurements were conducted.
Typically, a spray solution of the active ingredient (0.5 g of active ingredient/l) was produced. An aliquot was applied to an apple cuticle and left to dry. The operation was repeated 10 times. The amount absorbed through the cuticles in the uptake solution is determined by HPLC as described above. The measurements were made after 0, 6, 12, 24, 36 or 48 h.

[2] = Dynamic surface tension, bubble pressure method; type: physicochemical; details: 6 g/l
Description: Dynamic surface tension was determined via the bubble pressure method (BP2100 tensiometer, Krüss).

[3] = Table 8, mefenpyr-diethyl SC formulation, no adjuvant
[4] = Table 9, mefenpyr-diethyl SC formulation, no adjuvant
[5] = Table 7, bixlozone standard SC formulation, no adjuvant
[6] = Table 19, bixlozone SC formulation, no adjuvant
[7] = Table 26, bixlozone EC formulation, no adjuvant
[8] = Table 24, Compound 3 WP20 formulation, cuticle from 2016, no adjuvant
[9] = Table 30, Compound 5 WP20 formulation, no adjuvant
[10] = Table 31, Compound 6 WP20 formulation, no adjuvant
[11] = Table 20, prohexadione-Ca EC formulation, no adjuvant
[12] = Table 12, Rinskor EC formulation, adjuvant 2 g/l

CCOC(=O)C1=NN(c2ccc(Cl)cc2Cl)C(C)(C(=O)OCC)C1 (racemic) [Mefenpyr-diethyl, Diethyl (RS)-1-(2,4-dichlorophenyl)-4,5-dihydro-5-methyl-1H-pyrazole-3,5-dicarboxylate]
Cuticle penetration 12 h in % [1, 3]: 4% | Cuticle penetration 24 h in % [1, 3]: 9% | Cuticle penetration 48 h in % [1, 3]: 16% | Cuticle penetration 24 h in % [1, 4]: 17% | Cuticle penetration 48 h in % [1, 4]: 59%

CC1(C)CON(Cc2ccc(Cl)cc2Cl)C1=O [Bixlozone, 2-(2,4-Dichlorobenzyl)-4,4-dimethylisoxazolidin-3-one]
Cuticle penetration 6 h in % [1, 5]: 21% | Cuticle penetration 12 h in % [1, 5]: 42% | Cuticle penetration 24 h in % [1, 5]: 62% | Cuticle penetration 24 h in % [1, 6]: 24% | Cuticle penetration 48 h in % [1, 6]: 73% | Cuticle penetration 6 h in % [1, 7]: 27% | Cuticle penetration 12 h in % [1, 7]: 29% | Cuticle penetration 24 h in % [1, 7]: 31%

NC(=O)c1ccc(C(F)(F)F)nc1O [Compound 3]
Cuticle penetration 12 h in % [1, 8]: 0% | Cuticle penetration 24 h in % [1, 8]: 0% | Cuticle penetration 48 h in % [1, 8]: 0%

Cc1ccc2c(c1)C(Nc1ncc(C(C)(C)O)cn1)[C@@H](C)C2 (stereo partly drawn) [Compound 5]
Cuticle penetration 12 h in % [1, 9]: 6% | Cuticle penetration 24 h in % [1, 9]: 14% | Cuticle penetration 48 h in % [1, 9]: 52%

Cc1ccc2c(c1)C(Nc1nc3n(n1)CCCCS3)CCC2 (stereo not drawn) [Compound 6]
Cuticle penetration 12 h in % [1, 10]: 0% | Cuticle penetration 24 h in % [1, 10]: 0% | Cuticle penetration 48 h in % [1, 10]: 2%

CCC(=O)C1=C([O-])CC(C(=O)[O-])CC1=O.[Ca+2] (stereo not drawn) [Prohexadione-Ca, Calcium 3-oxido-5-oxo-4-propionyl-cyclohex-3-enecarboxylate]
Cuticle penetration 24 h in % [1, 11]: 18% | Cuticle penetration 48 h in % [1, 11]: 44%

Cn1nc(C(F)(F)F)c(CS(=O)(=O)C2=NOC(C)(C)C2)c1OC(F)F [Pyroxasulfone, 3-[5-(Difluoromethoxy)-1-methyl-3-(trifluoromethyl)pyrazol-4-ylmethylsulfonyl]-4,5-dihydro-5,5-dimethyl-1,2-oxazole]
Cuticle penetration 24 h in % ([1]; apple, 24 h, 0.5 g/l): 2%

CCCCOCCOP(=O)(OCCOCCCC)OCCOCCCC [TBEP, Tributoxyethyl phosphate]
Penetration enhancement (in words) ([1]; bixlozone, summary of Table 7): shows distinctly lower uptake of bixlozone than TEHP | Penetration enhancement (in words) ([1]; tembotrione (Laudis SC), summary of Tables 5 and 6): does not enhance the uptake of tembotrione

CCCCC(CC)COP(=O)(OCC(CC)CCCC)OCC(CC)CCCC (stereo not drawn) [TEHP, Tris(2-ethylhexyl) phosphate]
Penetration enhancement (in words) ([1]; mefenpyr-diethyl, summary of Tables 8 and 9): has better penetration-enhancing properties compared to TBEP in the combination | Dynamic surface tension 20 ms [2]: 71.7 mN/m | Dynamic surface tension 50 ms [2]: 71.7 mN/m | Dynamic surface tension 200 ms [2]: 71.6 mN/m | Dynamic surface tension 500 ms [2]: 71.5 mN/m

CS(=O)(=O)c1ccc(C(=O)C2C(=O)CCCC2=O)c(Cl)c1COCC(F)(F)F [Tembotrione]
Cuticle penetration 6 h in % ([1]; apple, 6 h, 0.5 g/l): 0% | Cuticle penetration 12 h in % ([1]; apple, 12 h, 0.5 g/l): 0%

Ammonium sulfate [AMS]
Cuticle penetration 24 h in % [1, 12]: 5% | Cuticle penetration 48 h in % [1, 12]: 15%
